Measurements from patent publication US4493843A, “Indole and indoline carboxylic acid compounds and method of use” (May & Baker Limited, priority 1980, dated 1985).
Where a name gives a salt, the structure may show the parent alone. Read-outs that look alike come from different tables or passages of the source.

Tested on: serum cholesterol and serum triglycerides
Assay: Hypolipidaemic activity in rats (compound in diet, last 7 of 10 days)
Type: in vivo, Male Wistar rats
Settings: 7 days; for change in vivo at 0.2 % strength / change in vivo at 0.1 % strength: Rattus norvegicus, po, 168 h; for change in vivo at 0.1 % strength: 0.1 % w/w dose in diet
Method: Hypolipidaemic Activity in Rats
Male Wistar rats each weighing between 120 and 150 g were caged in groups of eight and fed a powdered diet for 10 days. For the last 7 days of that period the test compound was administered orally by mixing the compound in the diet and allowing the animals to feed normally. Food consumption was measured on day 9 for each group.
At noon on day 10 the animals were killed by inhalation of carbon dioxide from solid carbon dioxide. A sample of blood was removed by cardiac puncture and the serum cholesterol and serum triglycerides were analysed by means of an autoanalyser.
Control groups (receiving only the normal, unmedicated diet) were included with each test.
The percentage reductions in the concentrations of serum cholesterol and serum triglycerides were calculated by comparison with the simultaneous controls, for each concentration of the test compound used.

[1] = 0.2 % w/w dose in diet, read-out: % change in serum cholesterol compared with control
[2] = 0.2 % w/w dose in diet, read-out: % change in serum triglycerides compared with control
[3] = read-out: % change in serum cholesterol compared with control
[4] = read-out: % change in serum triglycerides compared with control

| Compound | change in vivo at 0.2 % strength [1] [%] | change in vivo at 0.2 % strength [2] [%] | change in vivo at 0.1 % strength [3] [%] | change in vivo at 0.1 % strength [4] [%] | % change in serum cholesterol compared with control (0.2 % w/w dose in diet, oral) [%] | % change in serum triglycerides compared with control (0.2 % w/w dose in diet, oral) [%] |
| --- | --- | --- | --- | --- | --- | --- |
| CCCCCCCCCCCCCCCCc1cc2cc(C(=O)O)ccc2[nH]1 [Compound OO, 2-(n-hexadecyl)indole-5-carboxylic acid] | -52 | -75 | – | – | – | – |
| CCCCCCCCCCCC1Cc2ccc(C(=O)O)cc2N1 (racemic) [Compound AFF, (RS)-2-(n-undecyl)indoline-6-carboxylic acid] | -38 | -58 | – | – | – | – |
| CCCCCCCCCCCc1cc2cc(C(=O)OC)ccc2[nH]1 [Compound ATT, methyl 2-(n-undecyl)indole-5-carboxylate] | -16 | -70 | – | – | – | – |
| CCCCCCCCCCCCCCCc1cc2cc(C(=O)OC)ccc2[nH]1 [Compound LL, methyl 2-(n-pentadecyl)indole-5-carboxylate] | -16 | -22 | -13 | -32 | – | – |
| CCCCCCCCCCCCc1c[nH]c2cc(C(=O)O)ccc12 [Compound BDD, 3-(n-dodecyl)indole-6-carboxylic acid] | -2 | -5 | – | – | – | – |
| CCCCCCCCCCCc1cc2cc(C(=O)O)ccc2[nH]1 [Compound F, 2-(n-undecyl)indole-5-carboxylic acid] | -37 | -73 | -18 | -43 | – | – |
| CCCCCCCCCCCCCCCc1cc2cc(C(=O)OCCCC)ccc2[nH]1 [Compound HH, n-butyl 2-(n-pentadecyl)indole-5-carboxylate] | -24 | -50 | – | – | – | – |
| CCCCCCCCCCCCCCCCCCC1CNc2ccc(C(=O)O)cc21 (racemic) [Compound BOO, (RS)-3-(n-octadecyl)indoline-5-carboxylic acid] | 3 | 9 | – | – | – | – |
| CCCCCCCC1Cc2cc(C(=O)O)ccc2N1 (racemic) [Compound ABB, (RS)-2-(n-heptyl)indoline-5-carboxylic acid] | -18 | -34 | – | – | – | – |
| CCCCCCCc1cc2ccc(C(=O)OCCCC)cc2[nH]1 [Compound AKK, n-butyl 2-(n-heptyl)indole-6-carboxylate] | -3 | -10 | – | – | – | – |
| CCCCCCCCCCCCCCCc1cc2ccc(C(=O)OC)cc2[nH]1 [Compound ANN, methyl 2-(n-pentadecyl)indole-6-carboxylate] | 1 | -25 | – | – | – | – |
| CCCCCCCCc1c[nH]c2ccc(C(=O)O)cc12 [Compound BTT, 3-(n-octyl)indole-5-carboxylic acid] | 0 | 15 | – | – | – | – |
| CCCCCCCCCCCc1cc2cc(C(=O)OCCCC)ccc2[nH]1 [Compound AUU, n-butyl 2-(n-undecyl)indole-5-carboxylate] | -14 | -57 | – | – | – | – |
| CCCCCCCCCc1cc2ccc(C(=O)O)cc2[nH]1 [Compound L, 2-(n-nonyl)indole-6-carboxylic acid] | -21 | -25 | – | – | – | – |
| CCCCCCCCCCCc1cc2ccc(C(=O)OCC(O)CO)cc2[nH]1 (racemic) [Compound CVV, (RS)-2,3-dihydroxyprop-1-yl 2-(n-undecyl)indole-6-carboxylate] | – | – | -16 | -56 | – | – |
| CCCCCCCCCCCc1cc2ccc(C(=O)O)cc2[nH]1 [C sodium salt] | – | – | – | – | -41 | -46 |
| CCCCCCCCCCCCCCCCCCCCCCCc1cc2cc(C(=O)O)ccc2[nH]1 [Compound QQ, 2-(n-tricosyl)indole-5-carboxylic acid] | -16 | -36 | – | – | – | – |
| CCCCCCCCCCCCCCc1cc2ccc(C(=O)O)cc2[nH]1 [Compound SS, 2-(n-tetradecyl)indole-6-carboxylic acid] | -14 | 3 | – | – | – | – |
